{"source": "patent US9345704B2", "about": "“Materials and methods for suppressing and/or treating neurofibroma and related tumors” (Indiana University Research and Technology Corp., priority 2008, dated 2016)", "test_system": "trigeminal plexiform neurofibroma", "experiment": "Compassionate use treatment with imatinib mesylate of a child presenting with a plexiform neurofibroma (MRI)", "type": "in vivo, human", "text": "Plexiform neurofibromas primarily present in infants and young children with NF1 are frequently characterized by rapid growth and invasion into adjacent organs often resulting in impairment of normal organ function. In addition, these tumors have a high likelihood of progressing to malignancy for which there is no cure.", "note": "Where a name gives a salt, the structure may show the parent alone."}
{"smiles": "Cc1ccc(NC(=O)c2ccc(CN3CCN(C)CC3)cc2)cc1Nc1nccc(-c2cccnc2)n1", "note": "[imatinib mesylate, 4-(4-methylpiperazin-1-ylmethyl)-N-[4-methyl-3-(4-(pyridin-3-yl)pyrimidin-2-ylamino)phenyl]-benzamide]", "values": [{"measurement": "side effects", "setting": "NF1 patient, 350 mg/m2/dose, treatment for six months", "value": "no observed side effects"}, {"measurement": "tumor size (coronal MRI)", "setting": "before vs 6 months following treatment", "value": "profound decrease in tumor size"}, {"measurement": "upper airway (axial MRI)", "setting": "before vs after 6 months of treatment", "value": "marked improvement with airway enlargement"}, {"measurement": "recurrence of symptoms off treatment", "setting": "off treatment for six months after six months of treatment", "value": "without a recurrence of symptoms"}]}
